Test results as given in patent publication US10245246B2, “β-substituted β-amino acids and analogs as chemotherapeutic agents” (QUADRIGA BIOSCIENCES, INC., priority 2014, dated 2019).

Key:
[1] = test system: LLCPK cells conditionally expressing hLAT1; assay type: cell-based
B16 melanoma cells = experiment: In vivo tumor growth suppression, B16 efficacy model; details: C57BL/6 mice, s.c. B16 melanoma, dosed IP daily for 12 days; test compound 5 and 10 mg/kg, melphalan 2.5 mg/kg

N[C@@H](Cc1ccc(N(CCCl)CCCl)cc1)C(=O)O [Melphalan]
percent surviving cells in cells expressing LAT1 compared to cells not expressing LAT1 (reduction) [1]: about the same
Tumor Growth (% Control), 5 days post-dosing (B16 melanoma cells): 56 % Control
Tumor Growth (% Control), End of dosing (B16 melanoma cells): 33 % Control
